# Test results: DBAASP
# “And” between values parts separate entries of the source, which are not always exact repeats. Identical values can stand only once.
# Tests used:
# Assay in all cases: ≥ marks a high value that may be exact or a test limit, other limits are often not marked, values filed in µg/mL are converted to µM
# [1] = system: Staphylococcus aureus S015
# [2] = system: Enterobacter cloacae ATCC 13047
# Candida krusei ATCC 6258 = system: Candida krusei ATCC 6258
# [3] = system: Staphylococcus aureus ATCC 29213
# [4] = system: Staphylococcus epidermidis ATCC 12228
# [5] = system: Enterococcus faecalis ATCC 4028
# [6] = system: Staphylococcus aureus ATCC 33591
# [7] = system: Enterococcus faecalis ATCC 29212
# [8] = system: Escherichia coli ATCC 25922
# [9] = system: Candida glabrata ATCC 90030
# [10] = system: Pseudomonas aeruginosa ATCC 27853
# [11] = system: Candida albicans ATCC 90028
# [12] = system: Candida parapsilosis ATCC 22019
# [13] = system: Candida albicans ATCC 2002
# [14] = system: Klebsiella pneumoniae IS59#
# [15] = system: Klebsiella pneumoniae ATCC 700603
# [16] = system: Staphylococcus aureus ATCC 25923
# [17] = system: Pseudomonas aeruginosa IS350#
# Escherichia coli IS117# = system: Escherichia coli IS117#
# Escherichia coli IS218# = system: Escherichia coli IS218#
# [18] = system: Staphylococcus aureus IS37#
# Escherichia coli IS37# = system: Escherichia coli IS37#
# [19] = system: Pseudomonas aeruginosa CMCCB 1010
# Shigella dysenteriae = system: Shigella dysenteriae
# [20] = system: Staphylococcus aureus IS10#
# Escherichia coli D31 = system: Escherichia coli D31
# [21] = system: Micrococcus luteus DSM 20030
# [22] = system: Pseudomonas aeruginosa ATCC 9027
# Candida albicans = system: Candida albicans
# [23] = system: Mycobacterium tuberculosis
# Streptococcus agalactiae = system: Streptococcus agalactiae
# [24] = system: Mycobacterium tuberculosis H37Rv
# Candida glabrata = system: Candida glabrata
# Staphylococcus aureus = system: Staphylococcus aureus
# Aspergillus nidulans = system: Aspergillus nidulans
# Escherichia coli = system: Escherichia coli
# [25] = system: Porphyromonas gingivalis ATCC 33277
# [26] = system: Escherichia coli ATCC 12014
# [27] = system: Enterococcus faecalis FA2-2
# [28] = system: Enterococcus faecalis OG1X
# [29] = system: Staphylococcus aureus ATCC 6538
# [30] = system: Bacillus subtilis ATCC 11774
# Streptococcus gordonii = system: Streptococcus gordonii
# [31] = system: Pseudomonas aeruginosa ATCC 10145
# [32] = system: Salmonella enterica subsp. enterica serovar Typhimurium ATCC BAA-215
structure (smiles),measurement,setting,value
CC[C@H](C)[C@H](NC(=O)[C@H](CC(C)C)NC(=O)CNC(=O)CNC(=O)[C@@H](NC(=O)[C@H](CC(C)C)NC(=O)[C@H](CO)NC(=O)[C@@H]1CCCN1C(=O)[C@@H](NC(=O)[C@H](CC(C)C)NC(=O)[C@H](CO)NC(=O)[C@H](Cc1ccccc1)NC(=O)[C@@H](N)Cc1ccccc1)[C@@H](C)CC)C(C)C)C(=O)N[C@@H](CO)C(=O)N[C@@H](C)C(=O)N[C@@H](Cc1ccccc1)C(=O)N[C@@H](CCCCN)C(N)=O [FFSLIPSLVGGLISAFK],MIC,[1],≥ 139 µM
same,MIC,[2],≥ 150 µM
same,MIC,Candida krusei ATCC 6258,≥ 69.5 µM
same,MIC,[3],8.68 µM and 9.37 µM
same,MIC,[4],9.38 µM and 9.37 µM
same,MIC,[5],≥ 150 µM
same,MIC,[6],17.4 µM
same,MIC,[7],> 139 µM
same,MIC,[8],> 139 µM
same,MIC,[9],≥ 69.5 µM
same,MIC,[10],> 150 µM
same,MIC,[11],≥ 34.8 µM
CC[C@H](C)[C@H](NC(=O)CNC(=O)[C@H](CO)NC(=O)[C@H](CC(C)C)NC(=O)[C@H](CC(C)C)NC(=O)CN)C(=O)N[C@@H](CC(C)C)C(=O)NCC(=O)N[C@@H](C)C(=O)NCC(=O)N[C@@H](CCCCN)C(=O)N[C@@H](CCCN=C(N)N)C(=O)N[C@H](C(=O)N[C@H](C(=O)N[C@H]1CSSC[C@@H](C(=O)O)NC(=O)[C@H](CC(C)C)NC(=O)CNC(=O)[C@H](CO)NC(=O)[C@H](CC(C)C)NC(=O)CNC1=O)C(C)C)[C@@H](C)CC [GLLSGILGAGKRIVCGLSGLC],MIC,[12],2.52 µM
same,MIC,[2],2.52 µM
same,MIC,[13],1.01 µM
same,MIC,[14],10.1 µM
same,MIC,[15],0.503 µM
same,MIC,[16],5.03 µM
same,MIC,[7],5.03 µM
same,MIC,[17],10.1 µM
same,MIC,[8],2.52 µM
same,MIC,Escherichia coli IS117#,5.03 µM
same,MIC,Escherichia coli IS218#,10.1 µM
same,MIC,[18],5.03 µM
same,MIC,[10],5.03 µM
same,MIC,[11],1.26 µM
same,MIC,Escherichia coli IS37#,5.03 µM
same,MIC,[19],0.503 µM
same,MIC,Shigella dysenteriae,5.03 µM
same,MIC,[20],2.52 µM
CC[C@H](C)[C@H](NC(=O)[C@H](Cc1c[nH]c2ccccc12)NC(=O)[C@@H](N)CO)C(=O)N[C@@H](CCCCN)C(=O)N[C@@H](CCCCN)C(=O)N[C@@H](CC(=O)O)C(=O)N[C@@H](CCCCN)C(=O)N[C@@H](Cc1ccccc1)C(=O)N1CCC[C@H]1C(=O)N[C@@H](CO)C(=O)N[C@@H](CO)C(=O)N[C@H](C(=O)NCC(=O)N1CCC[C@H]1C(=O)N[C@@H](Cc1ccc(O)cc1)C(=O)N[C@@H](CC(N)=O)C(=O)N1CCC[C@H]1C(=O)N[C@@H](CC(N)=O)C(=O)N1CCC[C@H]1C(=O)N1CCC[C@H]1C(=O)N1CCC[C@H]1C(=O)N1CCC[C@H]1C(=O)N[C@@H](CCCN=C(N)N)C(=O)N[C@@H](Cc1ccccc1)C(=O)O)[C@@H](C)O [SWIKKDKFPSSTGPYNPNPPPPRF],MIC,Escherichia coli D31,≥ 100 µM
same,MIC,[21],≥ 100 µM
CC[C@H](C)[C@H](NC(=O)[C@H](CCCCN)NC(=O)[C@H](CCCCN)NC(=O)[C@@H](NC(=O)[C@H](C)NC(=O)[C@H](CO)NC(=O)[C@@H](NC(=O)[C@H](C)NC(=O)[C@H](CO)NC(=O)[C@@H]1CCCN1C(=O)[C@@H](NC(=O)[C@H](CC(C)C)NC(=O)[C@H](CO)NC(=O)[C@H](CC(C)C)NC(=O)[C@H](CC(C)C)NC(=O)[C@H](Cc1ccccc1)NC(=O)[C@H](Cc1ccccc1)NC(=O)[C@@H]1CCCN1C(=O)[C@@H](N)CC(C)C)[C@@H](C)CC)[C@@H](C)CC)[C@@H](C)CC)C(N)=O [LPFFLLSLIPSAISAIKKI],MIC,[22],2.5 µM
same,MIC,Candida albicans,6.25 µM
same,MIC,[23],4.8 µM
same,MIC,[16],2.5 µM
same,MIC,Streptococcus agalactiae,2.5 µM
same,MIC,[24],17.4 µM
same,MIC,[8],24 µM
same,MIC,Candida glabrata,≥ 50 µM
CC[C@H](C)[C@H](NC(=O)[C@H](CO)NC(=O)[C@@H]1CCCN1C(=O)[C@H](CCCN=C(N)N)NC(=O)[C@H](Cc1c[nH]c2ccccc12)NC(=O)[C@H](Cc1c[nH]c2ccccc12)NC(=O)[C@H](Cc1ccc(O)cc1)NC(=O)[C@H](CCC(N)=O)NC(=O)[C@H](CCCCN)NC(=O)[C@H](CC(C)C)NC(=O)[C@@H]1CCCN1C(=O)[C@@H](N)Cc1cnc[nH]1)C(=O)O [HPLKQYWWRPSI],MIC,Candida albicans,11 µM
same,MIC,Staphylococcus aureus,> 125 µM
same,MIC,Aspergillus nidulans,21.9 µM
same,MIC,Escherichia coli,> 125 µM
CC[C@H](C)[C@H](NC(=O)[C@H](CCCCN)NC(=O)[C@H](CCC(=O)O)NC(=O)[C@H](CCCCN)NC(=O)[C@H](CO)NC(=O)[C@H](CCCCN)NC(=O)[C@@H](N)CCCN=C(N)N)C(=O)NCC(=O)N[C@@H](CCCCN)C(=O)N[C@@H](CCC(=O)O)C(=O)N[C@@H](Cc1ccccc1)C(=O)N[C@@H](CCCCN)C(=O)N[C@@H](CCCN=C(N)N)C(=O)N[C@H](C(=O)N[C@H](C(=O)N[C@@H](CCC(N)=O)C(=O)N[C@@H](CCCN=C(N)N)C(=O)N[C@H](C(=O)N[C@@H](CCCCN)C(=O)N[C@@H](CC(=O)O)C(=O)N[C@@H](Cc1ccccc1)C(=O)O)[C@@H](C)CC)C(C)C)[C@@H](C)CC [RKSKEKIGKEFKRIVQRIKDF],MIC,[25],4.75 µM
same,MIC,[26],0.152 µM
same,MIC,[27],4.75 µM
same,MIC,[28],19 µM
same,MIC,[29],19 µM
same,MIC,[30],0.038 µM
same,MIC,Streptococcus gordonii,2.37 µM
same,MIC,[31],≥ 38 µM
same,MIC,[32],19 µM
